Reference: patent US11566049B2, “Cyclic peptides and uses thereof” (LATERAL IP PTY LTD, priority 2018, dated 2023)
“And” between values parts separate entries of the source, which are not always exact repeats. Equal entries are not always repeated. “Also recorded” adds a separate entry of the source.

Test system: dorsal horn neurons
Experiment: whole-cell recording of dorsal horn neurons in spinal cord slices from Chung models (Example 4)
Assay type: cell-based, rat
Details: 1 μM; for Input Resistance, mean in presence of peptide / Membrane Potential, mean in presence of peptide: all cells; for Normalised Input Resistance / Normalised Input Resistance ΔIR: control = 100; for effect on membrane potential and activity of dorsal horn neurons: ipsilateral to injury; for Normalised Membrane Potential / Normalised Membrane Potential ΔVm: rest = 100; for reversal potential of induced response (VI plots intersect): single cells; for ΔIR, change in neuronal input resistance: vs control, in table positive = reduction, negative = increase; for ΔVm, change in membrane potential: vs rest, in table positive = hyperpolarisation, negative = depolarisation
Description: Adult male Sprague-Dawley rats, weighing 220-250 g (aged/weeks and older) at the time of surgery, were used in this study. They were housed in groups of 4, in an air-conditioned room, on a 12-hour light/dark cycle with food and water available ad libitum. All experiments were performed in accordance with the U.K. Animals (Scientific Procedures) Act (1986).
The animals were housed in groups of 4 in an air-conditioned room on a 12-hour light/dark cycle. Food and water were available ad libitum. They were allowed to acclimatise to the environment for experiments for three days by leaving them on a raised metal mesh for at least 40 min. The baseline paw withdrawal threshold (PWT) was examined using a series of graduated von Frey hairs (see below) for 3 consecutive days before surgery and re-assessed on the 6th to 8th day after surgery and on the 12th to 14th day after surgery before drug dosing.
Each rat was anaesthetized with 5% isoflurane mixed with oxygen (2 L per min) followed by an intramuscular (i.m.) injection of ketamine 90 mg/kg plus xylazine 10 mg/kg. The back was shaved and sterilized with povidone-iodine. The animal was placed in a prone position and a para-medial incision was made on the skin covering the L4-6 level. The L5 spinal nerve was carefully isolated and tightly ligated with 6/0 silk suture. The wound was then closed in layers after a complete haemostasis. A single dose of antibiotics (Amoxipen, 15 mg/rat, i.p.) was routinely given for prevention of infection after surgery. The animals were placed in a temperature-controlled recovery chamber until fully awake before being returned to their home cages.
LAT9993 LoopS (SEQ ID NO:28), SEQ11+LAT9993 Loop (SEQ ID NO:32; […]), SEQ25+LAT9993 Loop (SEQ ID NO:33; […]), LAT9993 SLoop A4 (SEQ ID NO:30), LAT9993 SLoop A7 (SEQ ID NO:31), LAT9993 SLoop A9 (SEQ ID NO:34; SCRSRPVEASC) and LAT9993 SLoop A10 (SEQ ID NO:35; SCRSRPVESAC), were solubilised in distilled water and made up as concentrated stocks and stored frozen until the day of experiment when they were diluted to the required test concentrations in artificial cerebrospinal fluid (aCSF), as described in Example 3, above.
Ten to fourteen days after surgery, animals were placed in individual Perspex boxes on a raised metal mesh for at least 40 minutes prior to PWT testing. Starting with the filament of lowest force (1 g), each filament was applied perpendicularly to the centre of the ventral surface of the paw until slightly bent for 6 seconds. If the animal withdrew or lifted its paw upon stimulation, a von Frey hair with force immediately lower than that tested was subsequently used. If no response was observed, then a hair with force immediately higher was tested. The lowest amount of force required to induce reliable responses (positive in 2 out of 3 trials) was recorded as the value of PWT. Only animals showing significant mechanical allodynia (PWT≤3.5 g) were selected for subsequent electrophysiological experiments (see FIG. 5).
Once validation of a neuropathic state had been confirmed, animals were terminally anesthetized using isoflurane (Norvartis Animal Health UK Ltd.), cervically dislocated and decapitated. A laminectomy was performed and the spinal cord, with spinal roots and DRG attached, removed and cut into 250-450 μm thick slices using a Leica VT1000S vibrating microtome (Leica Microsystems UK, Milton Keynes, United Kingdom). Slices were maintained in artificial cerebrospinal fluid (aCSF) at room temperature for 1 hr after slicing before recording. For recording, individual slices were held between two grids in a custom-built chamber continuously perfused with aCSF at a rate of 4-10 ml.min^−1, illuminated from below, and viewed under a dissection microscope. The aCSF was of the following composition (mM): NaCl, 127; KCl, 1.9; KH2PO4, 1.2; CaCl2, 2.4; MgCl2, 1.3; NaHCO3, 26; D-glucose, 10; equilibrated with 95% O2-5% CO2. […]

[1] = listed as SEQ 11 + LAT9993 Loop

| Sequence | dorsal root afferent-mediated EPSPs / synaptic inputs (words) | Input Resistance, mean in presence of peptide | Membrane Potential, mean in presence of peptide | Normalised Input Resistance | Normalised Input Resistance ΔIR | effect on membrane potential and activity of dorsal horn neurons | Normalised Membrane Potential | Normalised Membrane Potential ΔVm | reversal potential of induced response (VI plots intersect) | ΔIR, change in neuronal input resistance | ΔVm, change in membrane potential | other results |
| --- | --- | --- | --- | --- | --- | --- | --- | --- | --- | --- | --- | --- |
| IDPSSEAPGHSCRSRPVESSC (listed as Homo sapiens) [SEQ11+LAT9993 Loop, peptide variant of formula (I)] | little effect; also recorded: No obvious effect | 338.1±103.7 MΩ | −52.3±9.8 mV | 85.6 | 14.4 | membrane hyperpolarisation and inhibition of activity in 2 neurons; also recorded: membrane depolarisation in the other neurone | 101.4 | −1.4 | around −65 mV | 109.5±140.2 MΩ | 1.6±3.4 mV | Input Resistance, mean in presence of peptide [1]: 338.1 MΩ; Membrane Potential, mean in presence of peptide [1]: −52.3 mV; ΔIR, change in neuronal input resistance [1]: 109.5 MΩ; ΔVm, change in membrane potential [1]: 1.6 mV |
| CRSRPVESSCSSKFSWDEYEQYKKE (listed as Homo sapiens) [SEQ25+LAT9993 Loop, peptide variant of formula (I)] | suppressed dorsal root-evoked excitatory posts-synaptic potentials (EPSPs) in one neurone; also recorded: suppressed dorsal root afferent-mediated synaptic inputs; also recorded: partly suppressed | 339.6±97.6 MΩ | −49.1±3.0 mV | 101.7 | −1.7 | induced inhibition of spontaneous activity and suppressed an after-depolarising potential; also recorded: slight depolarisation of the membrane potential | 93.7 | 6.3 |  | 1.4±18.2 MΩ | 3.4±0.9 mV | Input Resistance, mean in presence of peptide (listed as SEQ25 + LAT9993 Loop): 339.6 MΩ; Membrane Potential, mean in presence of peptide (listed as SEQ25 + LAT9993 Loop): −49.1 mV; ΔIR, change in neuronal input resistance (listed as SEQ25 + LAT9993 Loop): −1.4 MΩ; ΔVm, change in membrane potential (listed as SEQ25 + LAT9993 Loop): −3.4 mV |
| SCRSRPVESAC (listed as Homo sapiens) [LAT9993 SLoop A10, peptide variant of formula (I)] | little effect | 452.3 MΩ | −56.8±5.6 mV and −56.8 mV | 99.3 | 0.7 |  | 101.2 | −1.2 |  | −8.5 MΩ | 0.7±1.2 mV and 0.7 mV | Input Resistance, mean in presence of peptide (listed as LAT9993 Loop A10): 452.3±197.1 MΩ; effect on membrane potential and activity of dorsal horn neurons (listed as LAT9993 Loop A10): membrane hyperpolarisation and inhibition of activity in 2 neurons; also recorded: membrane depolarisation in 1 neurone; also recorded: little effect on dorsal horn neurons; ΔIR, change in neuronal input resistance (listed as LAT9993 Loop A10): 8.5±26.5 MΩ |
| SCRSRPVEASC (listed as Homo sapiens) [LAT9993 SLoop A9, peptide variant of formula (I)] | little effect | 243.1±54.4 MΩ and 243.1 MΩ | −45.6±11.2 mV and −45.6 mV | 134.0 | −34.0 |  | 76.9 | 23.1 | no obvious reversal potentials |  |  | dorsal root-evoked IPSPs: little effect; effect on membrane potential and activity of dorsal horn neurons (listed as LAT9993 Loop A9): membrane depolarisation in all neurons; dorsal root afferent-mediated EPSPs / synaptic inputs (words) (listed as LAT9993 Loop A9): no obvious effect; also recorded: little effect |
| SCRSRPAESSC (listed as Homo sapiens) [LAT9993 SLoop A7, peptide variant of formula (I)] | suppressed dorsal root-evoked excitatory posts-synaptic potentials (EPSPs) in some neurons | 292.9±81.3 MΩ and 292.9 MΩ | −46.2±4.3 mV and −46.2 mV | 93.3 | 6.7 | membrane hyperpolarisation and inhibition of activity in 1 neurone; also recorded: membrane depolarisation in 1 neurone; also recorded: no effect on membrane potential in the remaining neurone | 95.3 | 4.7 | around −90 mV | 22.8±59.8 MΩ and 22.8 MΩ |  | effect on membrane potential and activity of dorsal horn neurons (listed as LAT9993 Loop A7): membrane depolarisation; dorsal root afferent-mediated EPSPs / synaptic inputs (words) (listed as LAT9993 Loop A7): suppressed dorsal root afferent-mediated excitatory synaptic inputs; also recorded: partly suppressed |
| SCRARPVESSC (listed as Homo sapiens) [LAT9993 SLoop A4, peptide variant of formula (I)] | suppressed | 294.6±40.7 MΩ | −53.3±5.1 mV | 78.3 | 21.7 | membrane hyperpolarisation and inhibition of activity in 1 neurone; also recorded: membrane depolarisation in 3 neurons | 107.7 | −7.7 |  | 103.1±55.5 MΩ | 4.2±3.1 mV | Input Resistance, mean in presence of peptide (listed as LAT9993 Sloop A4): 294.6 MΩ; Membrane Potential, mean in presence of peptide (listed as LAT9993 Sloop A4): −53.3 mV; effect on membrane potential and activity of dorsal horn neurons (listed as LAT9993 Loop A4): membrane hyperpolarisation and suppression of activity; dorsal root afferent-mediated EPSPs / synaptic inputs (words) (listed as LAT9993 Loop A4): suppressed dorsal root-evoked excitatory synaptic transmission; also recorded: partly suppressed; ΔIR, change in neuronal input resistance (listed as LAT9993 Sloop A4): 103.1 MΩ; ΔVm, change in membrane potential (listed as LAT9993 Sloop A4): 4.2 mV |
